In ChEMBL document CHEMBL5154923 (J Med Chem, 2022):
Values belong to the molecule of their own block, whether it stands above or below them. Calls of active or inactive are those of the source. No cut-off for these calls is given here.

How the values were obtained:
[1] = Binding affinity to wild type full length human CK2alpha2 (1 to 350 residues) expressed in mammalian expression system assessed as change in melting temperature by SYPRO orange dye based DSF assay
[2] = target: T1, Casein kinase II subunit alpha (Homo sapiens, UniProt P68400); assay: Binding affinity to wild type full length human CK2alpha1 (1 to 391 residues) expressed in mammalian expression system assessed as change in melting temperature at 10 uM by SYPRO orange dye based DSF assay
Target sequence in this assay (P68400 whole entry, looked up, the tested form may be a part): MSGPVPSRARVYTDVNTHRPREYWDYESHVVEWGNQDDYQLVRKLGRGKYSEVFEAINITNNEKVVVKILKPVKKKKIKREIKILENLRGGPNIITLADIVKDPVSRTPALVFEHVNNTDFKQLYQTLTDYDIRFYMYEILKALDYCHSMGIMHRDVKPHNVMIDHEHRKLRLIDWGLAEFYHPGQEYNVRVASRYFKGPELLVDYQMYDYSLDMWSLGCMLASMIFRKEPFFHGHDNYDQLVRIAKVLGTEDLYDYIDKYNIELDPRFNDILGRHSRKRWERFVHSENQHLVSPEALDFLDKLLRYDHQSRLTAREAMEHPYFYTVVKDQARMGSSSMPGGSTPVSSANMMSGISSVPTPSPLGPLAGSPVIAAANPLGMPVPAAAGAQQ

[3] = target: T2, Serine/threonine-protein kinase 17A (Homo sapiens) (UniProt Q9UEE5); assay: Binding affinity to human N-terminal His-tagged/ TEV cleavage fused DRAK1 (39 to 369 residues) expressed in Escherichia coli assessed as change in melting temperature at 10 uM by SYPRO orange dye based DSF assay
T2 sequence (whole entry): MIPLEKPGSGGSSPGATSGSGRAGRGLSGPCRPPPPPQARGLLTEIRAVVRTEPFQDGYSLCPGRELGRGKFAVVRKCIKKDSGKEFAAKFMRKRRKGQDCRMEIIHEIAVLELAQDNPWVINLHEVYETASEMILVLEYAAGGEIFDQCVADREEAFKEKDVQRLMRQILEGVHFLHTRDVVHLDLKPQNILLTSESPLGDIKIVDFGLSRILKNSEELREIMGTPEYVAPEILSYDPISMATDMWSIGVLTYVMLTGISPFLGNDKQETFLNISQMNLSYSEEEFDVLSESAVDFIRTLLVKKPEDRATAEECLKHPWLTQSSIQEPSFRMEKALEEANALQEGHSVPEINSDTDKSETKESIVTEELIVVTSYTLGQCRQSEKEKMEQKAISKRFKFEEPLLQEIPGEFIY

[4] = target: T3, Serine/threonine-protein kinase 17A (Homo sapiens, UniProt Q9UEE5); assay: Inhibition of human N-terminal His-tagged/ TEV cleavage fused DRAK1 (39 to 369 residues) transfected in HEK293T cells using NanoBRET NanoGlo as substrate incubated for 2 hrs by NanoBRET assay; format: cell-based
T3 sequence (Q9UEE5 whole entry): T2 sequence (whole entry)

[5] = target: AP2-associated protein kinase 1 (Homo sapiens) (UniProt Q2M2I8); assay: Binding affinity to AAK1 (unknown origin) assessed as change in melting temperature at 10 uM by SYPRO orange dye based DSF assay
LN-18 = assay: Antiproliferative activity against human LN-18 cells assessed as reduction in cell viability after 1 to 7 days by resazurin dye based fluorimetric analysis; format: functional
[6] = target: T4, BMP-2-inducible protein kinase (Homo sapiens, UniProt Q9NSY1); assay: Binding affinity to BIKE (unknown origin) assessed as change in melting temperature at 10 uM by SYPRO orange dye based DSF assay
Target sequence in this assay (Q9NSY1 whole entry, looked up): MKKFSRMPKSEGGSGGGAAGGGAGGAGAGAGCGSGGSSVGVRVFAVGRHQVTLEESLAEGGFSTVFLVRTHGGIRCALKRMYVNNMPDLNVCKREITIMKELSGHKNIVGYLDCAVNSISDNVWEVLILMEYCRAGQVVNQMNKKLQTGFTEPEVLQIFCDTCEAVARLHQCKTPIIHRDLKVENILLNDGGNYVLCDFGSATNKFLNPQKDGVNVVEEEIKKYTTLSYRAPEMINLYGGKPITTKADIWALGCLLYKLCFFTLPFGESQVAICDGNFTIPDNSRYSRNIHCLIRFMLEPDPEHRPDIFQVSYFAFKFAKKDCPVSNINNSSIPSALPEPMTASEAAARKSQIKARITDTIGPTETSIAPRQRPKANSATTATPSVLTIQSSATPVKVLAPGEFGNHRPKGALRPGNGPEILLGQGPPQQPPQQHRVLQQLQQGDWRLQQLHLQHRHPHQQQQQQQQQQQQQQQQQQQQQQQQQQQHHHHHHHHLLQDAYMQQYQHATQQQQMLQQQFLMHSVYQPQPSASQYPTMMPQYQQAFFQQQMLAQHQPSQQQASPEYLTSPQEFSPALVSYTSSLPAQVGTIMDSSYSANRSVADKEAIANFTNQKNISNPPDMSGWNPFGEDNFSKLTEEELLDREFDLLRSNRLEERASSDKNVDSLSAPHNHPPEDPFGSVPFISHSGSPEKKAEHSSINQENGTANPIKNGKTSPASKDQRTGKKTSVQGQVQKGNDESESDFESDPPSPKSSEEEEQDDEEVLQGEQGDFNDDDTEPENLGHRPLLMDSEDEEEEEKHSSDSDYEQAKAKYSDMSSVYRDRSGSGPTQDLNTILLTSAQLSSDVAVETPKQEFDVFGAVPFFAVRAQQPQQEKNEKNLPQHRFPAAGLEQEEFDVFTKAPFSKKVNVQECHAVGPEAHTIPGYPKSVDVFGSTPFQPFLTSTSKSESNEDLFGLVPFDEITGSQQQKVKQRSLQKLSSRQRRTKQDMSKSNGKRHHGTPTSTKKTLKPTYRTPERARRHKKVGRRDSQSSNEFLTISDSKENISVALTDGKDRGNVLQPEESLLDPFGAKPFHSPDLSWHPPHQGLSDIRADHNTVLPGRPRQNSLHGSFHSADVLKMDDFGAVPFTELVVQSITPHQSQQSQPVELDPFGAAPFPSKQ

[7] = Inhibition of CK2alpha2 (unknown origin) transfected in HEK293T cells using NanoBRET NanoGlo as substrate incubated for 2 hrs by NanoBRET assay; format: cell-based; conditions: Homo sapiens, HEK-293T
[8] = target: T3, Serine/threonine-protein kinase 17A; assay: Inhibition of human N-terminal His-tagged/ TEV cleavage fused DRAK1 (39 to 369 residues) expressed in Escherichia coli using KKLNRTLSFAEPG peptide as substrate in presence of [gamma-33P]ATP by radiometric based scintillation proximity assay
[9] = Cytotoxicity against human HEK293T cells assessed as increase in total apoptotic cells incubated for 36 hrs by Annexin V staining based method; format: toxicity, cell-based, HEK-293T
HEK-293T [10] = assay: Cytotoxicity against human HEK293T cells at 1 uM incubated for 18 hrs; format: toxicity, cell-based
[11] = target: T3, Serine/threonine-protein kinase 17A; assay: Binding affinity to human N-terminal His-tagged/ TEV cleavage fused DRAK1 (39 to 369 residues) expressed in Escherichia coli by isothermal titration calorimetry
T98G [12] = assay: Antiproliferative activity against human T98G cells assessed as reduction in cell viability measured after 1 to 7 days by resazurin dye based fluorimetric analysis; format: functional
HEK-293T [13] = assay: Induction of morphological changes in human HEK293T cells assessed as mitochondrial damage at 1 to 10 uM incubated for 18 hrs by confocal fluorescence microscopic analysis; format: toxicity, cell-based; conditions: dose 1-10 µM
[14] = Inhibition of human CK2alpha2 using RRRDDDSDDD peptide as substrate in presence of [gamma-33P]ATP by radiometric based scintillation proximity assay
[15] = target: T5, Cyclin-G-associated kinase (Homo sapiens, UniProt O14976); assay: Inhibition of GAK (unknown origin) transfected in HEK293T cells using NanoBRET NanoGlo as substrate incubated for 2 hrs by NanoBRET assay; format: cell-based
T5 sequence (O14976 whole entry): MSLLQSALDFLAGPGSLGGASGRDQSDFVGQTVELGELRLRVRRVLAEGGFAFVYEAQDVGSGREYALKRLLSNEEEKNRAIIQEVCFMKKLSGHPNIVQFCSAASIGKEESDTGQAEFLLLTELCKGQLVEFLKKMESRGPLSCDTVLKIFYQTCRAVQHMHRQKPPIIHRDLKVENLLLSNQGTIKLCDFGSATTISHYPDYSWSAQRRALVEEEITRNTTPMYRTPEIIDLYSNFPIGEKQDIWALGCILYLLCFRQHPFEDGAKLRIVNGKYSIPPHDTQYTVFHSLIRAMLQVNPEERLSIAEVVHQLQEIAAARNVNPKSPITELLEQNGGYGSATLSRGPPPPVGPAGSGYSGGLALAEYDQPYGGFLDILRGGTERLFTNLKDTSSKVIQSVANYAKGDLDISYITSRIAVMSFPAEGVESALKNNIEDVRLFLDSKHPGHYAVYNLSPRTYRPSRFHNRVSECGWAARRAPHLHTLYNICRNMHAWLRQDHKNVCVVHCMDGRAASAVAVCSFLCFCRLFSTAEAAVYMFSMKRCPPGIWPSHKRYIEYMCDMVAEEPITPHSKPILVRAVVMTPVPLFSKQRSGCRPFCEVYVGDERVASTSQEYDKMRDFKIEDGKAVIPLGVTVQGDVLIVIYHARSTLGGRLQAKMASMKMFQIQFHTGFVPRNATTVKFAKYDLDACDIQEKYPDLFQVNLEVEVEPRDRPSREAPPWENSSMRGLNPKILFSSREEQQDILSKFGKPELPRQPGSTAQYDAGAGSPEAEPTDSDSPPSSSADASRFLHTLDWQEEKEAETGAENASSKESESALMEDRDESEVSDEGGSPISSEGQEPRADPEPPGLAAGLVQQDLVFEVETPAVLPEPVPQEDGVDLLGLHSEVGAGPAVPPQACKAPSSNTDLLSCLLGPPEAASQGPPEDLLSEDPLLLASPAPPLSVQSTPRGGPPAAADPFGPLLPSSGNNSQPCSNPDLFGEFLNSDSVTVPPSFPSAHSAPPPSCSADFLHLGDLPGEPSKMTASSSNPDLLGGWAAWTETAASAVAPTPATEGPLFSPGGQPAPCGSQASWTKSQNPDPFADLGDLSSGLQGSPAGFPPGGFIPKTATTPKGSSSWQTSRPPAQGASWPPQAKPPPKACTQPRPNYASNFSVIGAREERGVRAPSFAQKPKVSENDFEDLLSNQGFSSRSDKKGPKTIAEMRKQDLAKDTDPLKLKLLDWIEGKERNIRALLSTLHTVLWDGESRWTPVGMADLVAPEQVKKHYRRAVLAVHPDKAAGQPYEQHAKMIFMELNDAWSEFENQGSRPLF

LN-229 = assay: Antiproliferative activity against human LN-229 cells assessed as reduction in cell viability after 1 to 7 days by resazurin dye based fluorimetric analysis; format: functional
D-247MG = assay: Antiproliferative activity against human D-247MG cells assessed as reduction in cell viability after 1 to 7 days by resazurin dye based fluorimetric analysis; format: functional
[16] = target: T2, Serine/threonine-protein kinase 17A (Homo sapiens); assay: Inhibition of human N-terminal His-tagged/ TEV cleavage fused DRAK1 (39 to 369 residues) expressed in Escherichia coli assessed as change in enthalpy by isothermal titration calorimetry
[17] = Induction of morphological changes in human MRC9 cells assessed as microtubule damage at 1 to 10 uM incubated for 18 hrs by confocal fluorescence microscopic analysis; format: toxicity, cell-based; conditions: mrc9, 18 h, dose 1-10 µM
[18] = Cytotoxicity against human MRC9 cells assessed as increase in total apoptotic cells at 10 uM incubated for 36 hrs by Annexin V staining based method; format: toxicity, cell-based; conditions: mrc9, 36 h
T98G [19] = assay: Induction of morphological changes in human T98G cells assessed as change in cell shape at 12.5 uM incubated for 5 days by microscopy analysis; format: functional, cell-based; conditions: time 5.0 day
[20] = target: T1, Casein kinase II subunit alpha; assay: Inhibition of CK2alpha1(unknown origin) transfected in HEK293T cells using NanoBRET NanoGlo as substrate incubated for 2 hrs by NanoBRET assay; format: cell-based
Target sequence in this assay (P68400 whole entry, the tested form may be a part): as the sequence (P68400 whole entry, looked up, the tested form may be a part) above

U2OS = assay: Cytotoxicity against human U2OS cells assessed as increase in total apoptotic cells at 10 uM incubated for 36 hrs by Annexin V staining based method; format: functional, cell-based
[21] = target: T1, Casein kinase II subunit alpha; assay: Inhibition of human CK2alpha1 using RRRDDDSDDD peptide as substrate in presence of [gamma-33P]ATP by radiometric based scintillation proximity assay
Target sequence in this assay (P68400 whole entry, the tested form may be a part): as the sequence (P68400 whole entry, looked up, the tested form may be a part) above

HEK-293T [22] = assay: Induction of morphological changes in human HEK293T cells assessed as microtubule damage at 1 to 10 uM incubated for 18 hrs by confocal fluorescence microscopic analysis; format: toxicity, cell-based; conditions: dose 1-10 µM
HEK-293T [23] = assay: Cytotoxicity against human HEK293T cells assessed as increase in total apoptotic cells at 10 uM incubated for 36 hrs by Annexin V staining based method; format: toxicity, cell-based
HEK-293T [24] = assay: Cytotoxicity against human HEK293T cells assessed as increase in total apoptotic cells at 10 uM incubated for 18 hrs by Annexin V staining based method; format: toxicity, cell-based
HEK-293T [25] = assay: Cytotoxicity against human HEK293T cells at 1 uM incubated for 36 hrs; format: toxicity, cell-based
[26] = target: T4, BMP-2-inducible protein kinase; assay: Inhibition of BIKE (unknown origin) transfected in HEK293T cells using NanoBRET NanoGlo as substrate incubated for 2 hrs by NanoBRET assay; format: cell-based
Target sequence in this assay (Q9NSY1 whole entry): as the sequence (Q9NSY1 whole entry, looked up) above

[27] = Induction of morphological changes in human MRC9 cells assessed as mitochondrial damage at 1 to 10 uM incubated for 18 hrs by confocal fluorescence microscopic analysis; format: toxicity, cell-based; conditions: mrc9, 18 h, dose 1-10 µM
[28] = Cytotoxicity against human MRC9 cells at 1 uM incubated for 36 hrs; format: toxicity, cell-based; conditions: mrc9, 36 h
[29] = target: T2, Serine/threonine-protein kinase 17A (Homo sapiens); assay: Inhibition of human N-terminal His-tagged/ TEV cleavage fused DRAK1 (39 to 369 residues) expressed in Escherichia coli assessed as change in entropy by isothermal titration calorimetry
[30] = target: T2, Serine/threonine-protein kinase 17A (Homo sapiens); assay: Inhibition of human N-terminal His-tagged/ TEV cleavage fused DRAK1 (39 to 369 residues) expressed in Escherichia coli assessed as gibbs free energy change by isothermal titration calorimetry
[31] = Cytotoxicity against human MRC9 cells assessed as increase in total apoptotic cells incubated for 36 hrs by Annexin V staining based method; format: toxicity, cell-based
[32] = target: T6, Serine/threonine-protein kinase 17B (Homo sapiens, UniProt O94768); assay: Inhibition of DRAK2 (unknown origin) transfected in HEK293T cells using NanoBRET NanoGlo as substrate incubated for 2 hrs by NanoBRET assay; format: cell-based
T6 sequence (O94768 whole entry): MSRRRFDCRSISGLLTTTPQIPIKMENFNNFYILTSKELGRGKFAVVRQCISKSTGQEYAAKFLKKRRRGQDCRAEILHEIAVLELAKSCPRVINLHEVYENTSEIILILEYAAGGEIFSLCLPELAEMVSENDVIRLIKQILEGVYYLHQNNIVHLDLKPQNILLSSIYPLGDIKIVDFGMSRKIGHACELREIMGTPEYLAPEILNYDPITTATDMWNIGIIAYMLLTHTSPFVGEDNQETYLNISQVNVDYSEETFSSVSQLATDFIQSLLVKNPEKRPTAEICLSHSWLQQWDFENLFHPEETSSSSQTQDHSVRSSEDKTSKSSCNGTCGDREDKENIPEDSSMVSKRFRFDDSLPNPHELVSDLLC

AP2-associated protein kinase 1 (Homo sapiens), sequence (Q2M2I8 whole entry, looked up): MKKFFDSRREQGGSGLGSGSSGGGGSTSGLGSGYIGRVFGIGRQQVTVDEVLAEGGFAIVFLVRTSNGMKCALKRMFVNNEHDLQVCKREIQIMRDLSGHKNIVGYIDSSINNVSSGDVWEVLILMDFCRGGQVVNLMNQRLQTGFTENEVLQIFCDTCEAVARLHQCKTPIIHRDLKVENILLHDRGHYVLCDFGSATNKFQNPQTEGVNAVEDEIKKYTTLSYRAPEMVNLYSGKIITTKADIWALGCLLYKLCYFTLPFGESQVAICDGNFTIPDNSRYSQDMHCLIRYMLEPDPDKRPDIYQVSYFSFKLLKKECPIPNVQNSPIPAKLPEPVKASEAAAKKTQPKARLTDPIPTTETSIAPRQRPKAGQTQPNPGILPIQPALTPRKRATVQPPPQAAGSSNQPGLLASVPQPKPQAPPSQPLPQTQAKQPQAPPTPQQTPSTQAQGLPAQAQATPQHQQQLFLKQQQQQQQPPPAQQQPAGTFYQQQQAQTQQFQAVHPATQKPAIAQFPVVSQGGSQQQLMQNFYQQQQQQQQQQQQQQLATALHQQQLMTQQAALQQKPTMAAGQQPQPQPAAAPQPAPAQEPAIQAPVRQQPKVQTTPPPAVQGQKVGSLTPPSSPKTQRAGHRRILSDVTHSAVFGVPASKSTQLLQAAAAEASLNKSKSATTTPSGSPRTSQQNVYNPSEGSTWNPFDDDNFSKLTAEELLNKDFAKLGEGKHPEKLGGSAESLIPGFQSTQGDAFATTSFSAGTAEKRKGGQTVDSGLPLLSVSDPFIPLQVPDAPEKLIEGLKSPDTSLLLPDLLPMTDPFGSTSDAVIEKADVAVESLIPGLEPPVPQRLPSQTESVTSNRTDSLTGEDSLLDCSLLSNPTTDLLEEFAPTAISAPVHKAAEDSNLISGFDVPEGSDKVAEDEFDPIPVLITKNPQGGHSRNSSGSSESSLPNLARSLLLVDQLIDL

- ΔTm [1]: 2.5 °C
- ΔTm [2]: 1.1 °C
- ΔTm [3]: 3 °C
- IC50 [4]: > 45 µM
Compound: O=C(c1ccc2cc1OCCOCCNc1ccn3ncc-2c3n1)N1CCOCC1

- ΔTm [1]: 0.9 °C
- ΔTm [2]: 0.3 °C
- IC50 [4]: > 45 µM
Compound: CN1CCN(C(=O)c2ccc3cc2OCCOCCNc2ccn4ncc-3c4n2)CC1

- ΔTm [5]: > 5 °C
- ΔTm [6]: > 5 °C
- IC50 [7]: 39 µM
- IC50 [8]: 0.049 µM
- Kd [11]: 0.021 µM
- ΔTm [1]: 2.3 °C
- IC50 [14]: 0.38 µM
- IC50 [15]: 24 µM
- ΔTm [2]: 0.8 °C
- deltaH [16]: -7.39 kcal/mol
- IC50 [20]: 34 µM
- ΔTm [3]: 11.3 °C
- IC50 [21]: 0.95 µM
- IC50 [4]: 0.182 µM
- IC50 [26]: 8 µM
- deltaS [29]: 11.1 cal/mol.K
- deltaG [30]: -10.6 kcal/mol
- IC50 [32]: 8.4 µM
Compound: CC(C)(C)NC(=O)c1ccc2cc1OCCOCCNc1ccn3ncc-2c3n1
- EC50 (LN-18): 11.2 µM
- EC50 at 36 h [9]: > 10 µM
- Activity (HEK-293T [10]): Non-Toxic
- EC50 (T98G [12]): 10.4 µM
- Activity (HEK-293T [13]): Non-Toxic
- EC50 (LN-229): 9.2 µM
- EC50 (D-247MG): 2.75 µM
- Activity [17]: Non-Toxic
- Activity [18]: Toxic
- Activity (T98G [19]): Active
- Activity (U2OS): Active
- Activity (HEK-293T [22]): Non-Toxic
- Activity (HEK-293T [23]): Toxic
- Activity (HEK-293T [24]): Toxic
- Activity (HEK-293T [25]): Non-Toxic
- Activity [27]: Non-Toxic
- Activity [28]: Non-Toxic
- EC50 at 36 h [31]: > 10 µM

- IC50 [8]: 0.031 µM
- ΔTm [1]: 1.9 °C
- ΔTm [2]: -0.9 °C
- ΔTm [3]: 12.1 °C
- IC50 [4]: 0.071 µM
Compound: CC(NC(=O)c1ccc2cc1OCCOCCNc1ccn3ncc-2c3n1)c1ccccc1 (stereo not drawn)
